We go through one compound from article PMC7508583, “Discovery and Preclinical Development of Antigiardiasis Fumagillol Derivatives” (Antimicrobial Agents and Chemotherapy, 2020).

The data set is described as follows: in vitro. The note with it: human; for Papp at 120 min, 10 µM: Caco-2, pH 7.4, Mean ± SE Papp, Caco-2, 10 μM. The source says:
Next, we tested the permeation of the compounds across polarized Caco-2 cell monolayers, a method that is widely used as an in vitro model of the human small intestinal mucosa to predict the absorption of orally administered drugs ([63], [64]). With noninvasive intestinal infections, there is no need to establish a high plasma concentration. Since a high rate of uptake through the host gut lining could increase compound toxicity, we sought to reduce gut absorption. […] Both apical-to-basal and basal-to-apical permeation values were measured to obtain information about efflux. […] The efflux machinery is currently unknown.
Passage 36 Caco-2 cells were used. The cells were cultured in Dulbecco’s modified Eagle’s medium (DMEM; 5 ml of 100 mM sodium pyruvate, 5 ml of 100× nonessential amino acids, 5 ml of penicillin-streptomycin, and 100 ml of heat-inactivated fetal bovine serum added to 385 ml of DMEM aseptically and mixed thoroughly), pH 7.4, at 37°C in 5% CO2. DMEM (250 μl) was added to the basal compartment of 96-well multiscreen Caco-2 cell plate consisting of high-pore-density polycarbonate (Millipore) with a 0.4-μm pore size and a 0.11-cm^2 active membrane area. The cells were seeded at a density of 12,000 cells/well (0.16 × 10^6 cells/ml) in the apical wells, with one well containing only medium as blank. The Caco-2 cell plate was placed in a CO2 incubator at 37°C for cell proliferation. On the day of assay, the medium was removed, washed twice with Hanks balanced salt solution (HBSS) buffer supplemented with 2% bovine serum albumin (BSA), pH 7.4, and incubated with the HBSS buffer for 30 min at 37°C. Wells with transepithelial electrical resistance values of greater than 230 Ω · cm^2 were selected for the experiments. […] The assay was performed in duplicate.
Seventy-five microliters of the test compounds was added to the apical wells, and 250 μl of HBSS buffer with 2% BSA was added to the basal wells. The plate was incubated in a CO2 incubator with shaking on a plate shaker at 150 rpm for 120 min, after which 25 μl of the basal samples was collected and processed.
Two hundred fifty microliters of test compounds was added to the basal wells, and 75 μl of HBSS buffer with 2% BSA was added to the apical wells. The plate was incubated in a CO2 incubator with shaking on a plate shaker at 150 rpm for 120 min, after which 25 μl of the apical samples was collected and processed.
For sample processing, a single-point calibration curve in HBSS buffer with 2% BSA was used. Donor samples were diluted 1:1 with HBSS containing 2% BSA, and receiver samples were diluted with 1:1 HBSS buffer and precipitated with 200 μl of acetonitrile containing internal standard. The samples were vortexed for 5 min at 1,000 rpm and centrifuged at 4,000 rpm for 10 min. One hundred microliters of the supernatant was diluted with 200 μl of water and analyzed by LC-MS/MS (with a Shimadzu ultrafast liquid chromatograph and an API 4000 LC-MS/MS system).
The apparent permeation coefficients (Papp) were calculated as Papp = (dQ/dT) × (1/C0) × (1/A), where dQ is the amount permeated to the receiver compartment of the 96-well plate, dT is the time of compound incubation, C0 is the initial compound concentration in the donor compartment of the well, and A is the surface area of the monolayer.

With `CC(C)NCC(O)COc1cccc2ccccc12` (stereo not drawn) [Propranolol, reference compound], the efflux ratio (usually a quotient of directional permeabilities that is used to spot active efflux) at 120 min, 10 µM (Caco-2, pH 7.4) stood at 0.36. Besides, the Papp (as a rule, the rate of passage across a membrane or cell layer, normalised by area and donor concentration) at 120 min, 10 µM runs as follows: (apical to basal) 22.6 ± 1.1 ×10⁻⁶ cm/s; (basal to apical) 8.14 ± 0.28 ×10⁻⁶ cm/s.
